Results as given in article PMC7144022, “Quinolinecarboxamides Inhibit the Replication of the Bovine Viral Diarrhea Virus by Targeting a Hot Spot for the Inhibition of Pestivirus Replication in the RNA-Dependent RNA Polymerase” (Molecules, 2020).

Columns and labels:
[1] = Cytotoxicity assay, proliferation of exponentially growing MDBK cells (MTS/PMS); format: cell-based, bovine; conditions: bovine
Description: Assays were carried out, as described previously.

[2] = system: BVDV NADL virus; assay: CPE-based antiviral assay, BVDV NADL in MDBK cells (MTS/PMS); conditions: for EC50: Bovine viral diarrhea virus isolates and strains, MDBK, 72 h; for S.I.: selectivity index, CC50 vs EC50; for fold increase: sheet CSFCII#, potency relative to TO502-2403 (EC50 0.2 µM)

Row | Structure (SMILES) | CC50 at 5 days [1] [µM] | EC50 [2] [µM] | S.I. [2] | fold increase [2]
1 | Cc1cc(NC(=O)c2cc(-c3ccco3)nc3ccccc23)on1 [CSFC-42, O=C(Nc1cc(C)no1)c3cc(nc2ccccc23)c4ccco4] | > 100 | 17.5 | 6 | 0.0114
2 | O=C(Nc1cc(-c2ccc(Br)cc2)on1)c1cc(-c2ccccc2)nc2ccccc12 [CSFC-43, O=C(Nc1cc(on1)c2ccc(Br)cc2)c4cc(nc3ccccc34)c5ccccc5] | > 100 | 4 | 26 | 0.05
3 | O=C(Nc1ccn(-c2ccccc2)n1)c1cc(-c2ccco2)nc2ccccc12 [CSFC-44, O=C(Nc1ccn(n1)c2ccccc2)c4cc(nc3ccccc34)c5ccco5] | 23 | 2.3 | 10 | 0.09
4 | Cc1cccc2sc(NC(=O)c3cc(-c4cccs4)nc4ccccc34)nc12 [CSFC-46, Cc1cccc2sc(nc12)NC(=O)c4cc(nc3ccccc34)c5cccs5] | > 100 | 0.2 | 500 | 1.00
5 | O=C(Nc1ccn(-c2ccccc2)n1)c1cc(-c2cccs2)nc2ccccc12 [CSFC-47, O=C(Nc1ccn(n1)c2ccccc2)c4cc(nc3ccccc34)c5cccs5] | > 100 | 1.7 | 59 | 0.12
6 | Cc1cccc2sc(NC(=O)c3cc(-c4ccc(Cl)s4)nc4ccccc34)nc12 [CSFC-48, Clc1ccc(s1)c3nc2ccccc2c(c3)C(=O)Nc4nc5c(C)cccc5s4] | 14 ± 0.7 | 14 | 1 | 0.0143
7 | Cc1ccc(-c2cc(C(=O)Nc3nc4c(C)cccc4s3)c3ccccc3n2)o1 [CSFC-49, Cc1ccc(o1)c3nc2ccccc2c(c3)C(=O)Nc4nc5c(C)cccc5s4] | > 100 | 0.7 | 143 | 0.29
8 | Cc1csc(-c2cc(C(=O)Nc3nc4c(C)cccc4s3)c3ccccc3n2)c1 [CSFC-50, Cc1cc(sc1)c3nc2ccccc2c(c3)C(=O)Nc4nc5c(C)cccc5s4] | > 100 | 1.9 | 53 | 0.11
9 | Cc1ccc(-c2cc(C(=O)Nc3ccn(-c4ccccc4)n3)c3ccccc3n2)o1 [CSFC-51, Cc1ccc(o1)c3nc2ccccc2c(c3)C(=O)Nc4ccn(n4)c5ccccc5] | > 100 | 15.2 | 7 | 0.0132
10 | Cc1csc(-c2cc(C(=O)Nc3ccn(-c4ccccc4)n3)c3ccccc3n2)c1 [CSFC-52, Cc1cc(sc1)c3nc2ccccc2c(c3)C(=O)Nc4ccn(n4)c5ccccc5] | > 100 | 1.2 | 83 | 0.17
11 | O=C(Nc1ccn(-c2ccccc2)n1)c1cc(-c2ccc(Cl)s2)nc2ccccc12 [CSFC-53, Clc1ccc(s1)c3nc2ccccc2c(c3)C(=O)Nc4ccn(n4)c5ccccc5] | > 100 | 77.5 | 1 | 0.00258
12 | O=C(Nc1nc2cc(F)ccc2s1)c1cc(-c2ccco2)nc2ccccc12 [CSFC-54, Fc1cc2nc(sc2cc1)NC(=O)c4cc(nc3ccccc34)c5ccco5] | > 100 | 100 | 1 | 0.002
13 | O=C(Nc1nc2cc(Cl)ccc2s1)c1cc(-c2ccco2)nc2ccccc12 [CSFC-55, Clc1cc2nc(sc2cc1)NC(=O)c4cc(nc3ccccc34)c5ccco5] | > 100 | 100 | 1 | 0.002
14 | CS(=O)(=O)c1ccc2nc(NC(=O)c3cc(-c4ccccc4)nc4ccccc34)sc2c1 [CSFC-56, CS(=O)(=O)c1ccc2nc(sc2c1)NC(=O)c4cc(nc3ccccc34)c5ccccc5] | > 100 | 100 | 1 | 0.002
15 | CCOc1ccc2nc(NC(=O)c3cc(-c4ccco4)nc4ccccc34)sc2c1 [CSFC-57, CCOc1ccc2nc(sc2c1)NC(=O)c4cc(nc3ccccc34)c5ccco5] | > 100 | 0.5 | 200 | 0.40
16 | CCOc1ccc2nc(NC(=O)c3cc(-c4ccccc4)nc4ccccc34)sc2c1 [CSFC-58, CCOc1ccc2nc(sc2c1)NC(=O)c4cc(nc3ccccc34)c5ccccc5] | > 100 | 3.3 | 30 | 0.06
17 | O=C(Nc1nc(-c2ccccc2)cs1)c1cc(-c2ccccc2)nc2ccccc12 [CSFC-60, O=C(Nc1nc(cs1)c2ccccc2)c4cc(nc3ccccc34)c5ccccc5] | > 100 | 0.7 | 143 | 0.29
18 | Cc1ccc2nc(NC(=O)c3cc(-c4ccccc4F)nc4ccccc34)sc2c1 [CSFC-61, Fc1ccccc1c3nc2ccccc2c(c3)C(=O)Nc4nc5ccc(C)cc5s4] | > 100 | 0.2 | 500 | 1.00

Row | Structure (SMILES) | CC50 at 5 days [1] [µM] | EC50 [2] [µM] | S.I. [2] | fold increase [2]
19 | Cc1cccc2sc(NC(=O)c3cc(-c4cccc(F)c4)nc4ccccc34)nc12 [CSFC-62, Fc1cccc(c1)c3nc2ccccc2c(c3)C(=O)Nc4nc5c(C)cccc5s4] | 25 ± 5 | 25 | 1 | 0.008
20 | COc1ccc2nc(NC(=O)c3cc(-c4ccco4)nc4ccc(F)cc34)sc2c1 [CSFC-63, Fc1cc2c(cc1)nc(cc2C(=O)Nc3nc4ccc(cc4s3)OC)c5ccco5] | > 100 | 18.8 | 5 | 0.0106
21 | COc1ccc2nc(NC(=O)c3cc(-c4ccco4)nc4ccc(OC)cc34)sc2c1 [CSFC-64, O=C(c2cc(nc1ccc(OC)cc12)c3ccco3)Nc4nc5ccc(cc5s4)OC] | > 100 | 16 | 6 | 0.0125
22 | COc1ccc2nc(NC(=O)c3cc(-c4ccco4)nc4c(C)cc(C)cc34)sc2c1 [CSFC-65, O=C(c2cc(nc1c2cc(cc1C)C)c3ccco3)Nc4nc5ccc(cc5s4)OC] | > 100 | 5.8 | 17 | 0.0345
23 | Cc1cccc2sc(NC(=O)c3cc(-c4ccc(F)cc4)nc4ccccc34)nc12 [CSFC-66, Fc1ccc(cc1)c3nc2ccccc2c(c3)C(=O)Nc4nc5c(C)cccc5s4] | > 100 | 0.2 | 500 | 1.00
24 | COc1ccc2nc(NC(=O)c3cc(-c4cccc(F)c4)nc4ccccc34)sc2c1 [CSFC-67, Fc1cccc(c1)c3nc2ccccc2c(c3)C(=O)Nc4nc5ccc(cc5s4)OC] | > 100 | 0.9 | 111 | 0.22
25 | COc1ccc2nc(NC(=O)c3cc(-c4ccc(F)cc4)nc4ccccc34)sc2c1 [CSFC-68, Fc1ccc(cc1)c3nc2ccccc2c(c3)C(=O)Nc4nc5ccc(cc5s4)OC] | > 100 | 0.2 | 500 | 1.00
26 | O=C(Nc1ccn(-c2ccccc2)n1)c1cc(-c2cccc(F)c2)nc2ccccc12 [CSFC-69, Fc1cccc(c1)c3nc2ccccc2c(c3)C(=O)Nc4ccn(n4)c5ccccc5] | > 100 | 0.1 | 1000 | 2.00
27 | O=C(Nc1ccn(-c2ccccc2)n1)c1cc(-c2ccc(F)cc2)nc2ccccc12 [CSFC-70, Fc1ccc(cc1)c3nc2ccccc2c(c3)C(=O)Nc4ccn(n4)c5ccccc5] | > 100 | 0.1 | 1000 | 2.00
28 | Cc1cccc2sc(NC(=O)c3cc(-c4ccco4)nc4ccc(F)cc34)nc12 [CSFC-71, Fc1cc2c(cc1)nc(cc2C(=O)Nc3nc4c(C)cccc4s3)c5ccco5] | > 100 | 0.1 | 1000 | 2.00
29 | Cc1ccc2nc(-c3ccco3)cc(C(=O)Nc3nc4c(C)cccc4s3)c2c1 [CSFC-72, Cc1cc2c(cc1)nc(cc2C(=O)Nc3nc4c(C)cccc4s3)c5ccco5] | > 100 | 8.7 | 11 | 0.023
30 | COc1ccc2nc(NC(=O)c3cc(-c4ccco4)nc4ccc(C)cc34)sc2c1 [CSFC-73, O=C(c2cc(nc1ccc(cc12)C)c3ccco3)Nc4nc5ccc(cc5s4)OC] | > 100 | 11.5 | 9 | 0.0174
31 | Cc1cccc2sc(NC(=O)c3cc(-c4ccco4)nc4ccc(CO)cc34)nc12 [CSFC-74, OCc1cc2c(cc1)nc(cc2C(=O)Nc1nc2c(C)cccc2s1)c1ccco1] | > 100 | 100 | 1 | 0.002
32 | Cc1cc(C)c2nc(-c3ccco3)cc(C(=O)Nc3nc4c(C)cccc4s3)c2c1 [CSFC-75, Cc5cc1c(nc(cc1C(=O)Nc2nc3c(C)cccc3s2)c4ccco4)c(C)c5] | > 100 | 5.3 | 19 | 0.0377
33 | O=C(Nc1ccn(-c2ccccc2)n1)c1cc(-c2ccccc2F)nc2ccccc12 [CSFC-76, Fc1ccccc1c3nc2ccccc2c(c3)C(=O)Nc4ccn(n4)c5ccccc5] | > 100 | 0.1 | 1000 | 2.00
34 | COc1ccc2nc(NC(=O)c3cc(-c4ccco4)nc4ccc(OC(F)(F)F)cc34)sc2c1 [CSFC-77, FC(F)(F)Oc1cc2c(cc1)nc(cc2C(=O)Nc3nc4ccc(cc4s3)OC)c5ccco5] | > 100 | 100 | 1 | 0.002
35 | Cc1cccc2sc(NC(=O)c3cc(-c4ccsc4)nc4ccccc34)nc12 [CSFC-78, Cc1cccc2sc(nc12)NC(=O)c4cc(nc3ccccc34)c5ccsc5] | > 100 | 0.1 | 1000 | 2.00
36 | Cc1cccc2sc(NC(=O)c3cc(-c4ccco4)nc4ccc(C(F)(F)OF)cc34)nc12 [CSFC-79, FC(F)(OF)c1cc2c(cc1)nc(cc2C(=O)Nc1nc2c(C)cccc2s1)c1ccco1] | > 100 | 2.5 | 40 | 0.08
